Data from patent publication US10412965B2, “Use of the antifungal ilicicolin H in agriculture” (AGROBIOLOGICS, LLC, priority 2015, dated 2019).
Values after ≈ are worked out from the molar mass of the structure shown.

Assays:
[1] = tested on: Pythium dissimile; type: cell-based; settings: 20 ppm
[2] = tested on: Alternaria solani; type: cell-based; settings: 20 ppm
[3] = tested on: Botryotinia fuckeliana; type: cell-based; settings: 20 ppm
[4] = tested on: Gibberella zeae; type: cell-based; settings: 20 ppm
[5] = tested on: Phytophthora infestans; type: in vivo; settings: 200 ppm
[6] = tested on: Zymoseptoria tritici; type: in vivo; settings: 100 ppm
[7] = tested on: Uromyces viciae-fabae; type: in vivo; settings: 100 ppm
[8] = tested on: Phytophthora infestans; type: in vivo; settings: tomato, preventative, disease control relative to untreated check
[9] = tested on: Plasmopara viticola; assay: Leaf disk test at different concentrations, grapevine; type: in vivo; settings: preventative, disease control relative to untreated check
[10] = tested on: Blumeria graminis f. sp. tritici (Erysiphe graminis); assay: Leaf disk test at different concentrations, wheat; type: in vivo; settings: preventative, disease control relative to untreated check
[11] = tested on: Puccinia recondita; assay: Leaf disk test at different concentrations, wheat; type: in vivo; settings: for Leaf-piece test rates (20 ppm), efficacy / Leaf-piece test rates (60 ppm), efficacy / Leaf-piece test rates (200 ppm), efficacy: wheat, disease control relative to untreated check
[12] = tested on: Phaeosphaeria nodorum (Septoria nodorum); assay: Leaf disk test at different concentrations, wheat; type: in vivo; settings: preventative, disease control relative to untreated check
[13] = tested on: Pyrenophora teres; assay: Leaf disk test at different concentrations, barley; type: in vivo; settings: preventative, disease control relative to untreated check
[14] = tested on: Alternaria solani; assay: Leaf disk test at different concentrations, tomato; type: in vivo; settings: preventative, disease control relative to untreated check
[15] = tested on: Magnaporthe grisea (Pyricularia oryzae); type: in vivo; settings: rice, preventative, disease control relative to untreated check
[16] = tested on: Pythium ultimum; assay: Liquid-culture fungal growth inhibition test; type: cell-based; settings: antifungal activity relative to untreated check, photometric, 2-7 days
[17] = tested on: Botryotinia fuckeliana (Botrytis cinerea); assay: Liquid-culture fungal growth inhibition test; type: cell-based
[18] = tested on: Glomerella lagenarium (Colletotrichum lagenarium); assay: Liquid-culture fungal growth inhibition test; type: cell-based
[19] = tested on: Mycosphaerella arachidis (Cercospora arachidicola); assay: Liquid-culture fungal growth inhibition test; type: cell-based
[20] = tested on: Zymoseptoria tritici; assay: Liquid-culture fungal growth inhibition test; type: cell-based
[21] = tested on: Gaeumannomyces graminis; assay: Liquid-culture fungal growth inhibition test; type: cell-based
[22] = tested on: Monographella nivalis (Microdochium nivale); assay: Liquid-culture fungal growth inhibition test; type: cell-based
[23] = tested on: Fusarium culmorum; assay: Liquid-culture fungal growth inhibition test; type: cell-based; settings: antifungal activity relative to untreated check, photometric, 2-7 days
Protocol: Suspensions of mycelial fragments or conidia of a fungal species, prepared either freshly from liquid cultures of the fungus or from cryogenic storage, were directly mixed into nutrient broth. DMSO solutions of Ilicicolin H (max. 10 mg/ml) were diluted with 0.025% Tween 20 by a factor of 50, and 10μ L of this solution was pipetted into a microtitre plate (96-well format). The nutrient broth containing the fungal spores/mycelia fragments was then added to give a final concentration of Ilicicolin H. The test plates were incubated in the dark at 24° C. and 96% relative humidity. The inhibition of fungal growth was determined photometrically after 2-7 days, depending on the pathosystem, and percent antifungal activity relative to the untreated check was calculated.

[24] = tested on: Thanatephorus cucumeris (Rhizoctonia solani); assay: Liquid-culture fungal growth inhibition test; type: cell-based
[25] = tested on: Sclerotinia sclerotiorum; assay: Liquid-culture fungal growth inhibition test; type: cell-based
[26] = tested on: HeLa cells; settings: cited from earlier work
[27] = tested on: mice; settings: cited from earlier work
[28] = 0.2 ppm, antifungal activity relative to untreated check, photometric, 2-7 days
[29] = 2 ppm, antifungal activity relative to untreated check, photometric, 2-7 days
[30] = 20 ppm, antifungal activity relative to untreated check, photometric, 2-7 days

Which “Disease control efficacy (average of two repeat experiments)” value (from here on “Disease control efficacy”) [1] does the source give for C/C=C/[C@H]1C(C(=O)c2c(O)c(-c3ccc(O)cc3)c[nH]c2=O)C=C(C)[C@H]2CC[C@H](C)C[C@@H]21 (stereo partly shown) [Ilicicolin H] here?
Its value is 0.

What about the “activity in mycelial growth test” value [1] of the same molecule?
The value was “not active”.

What about the “Disease control efficacy” value [2] of the same molecule?
The value was 0.

And the “activity in mycelial growth test” value [2]?
Its value is “not active”.

What about the “Disease control efficacy” value [3] of the same molecule?
Its value is 99.

What about the “activity in mycelial growth test” value [3] of the same molecule?
Its value is “active”.

And the “activity in mycelial growth test” value [4]?
The value was “not active”.

What about the “Disease control efficacy” value ([4]; artificial media, visual 3 band score, 4 to 14 days after inoculation) of the same molecule?
Its value is 0.

What about the “activity in leaf-piece assay” value ([5]; tomato) of the same molecule?
The value was “active”.

What about the “Disease control efficacy” value ([5]; tomato leaf piece, applied prior to inoculation, visual 3 band score) of the same molecule?
The value was 99.

What about the “Disease control efficacy” value [6] of the same molecule?
The value was 99.

And the “activity in leaf-piece assay” value [6]?
Its value is “active”.

What about the “Disease control efficacy” value [7] of the same molecule?
The value was 49.

What about the “activity in leaf-piece assay” value [7] of the same molecule?
Its value is “active in one rep”.

What about the “Leaf-piece test rates (20 ppm), efficacy” value ([8]; 20 ppm) of the same molecule?
The value was 0%.

And the “Leaf-piece test rates (60 ppm), efficacy” value ([8]; 60 ppm)?
Its value is 0%.

What about the “Leaf-piece test rates (200 ppm), efficacy” value ([8]; 200 ppm) of the same molecule?
Its value is 0%.

What about the “Leaf-piece test rates (20 ppm), efficacy” value ([9]; 20 ppm) of the same molecule?
Its value is 0%.

And the “Leaf-piece test rates (60 ppm), efficacy” value ([9]; 60 ppm)?
The value was 0%.

And the “Leaf-piece test rates (200 ppm), efficacy” value ([9]; 200 ppm)?
Its value is 0%.

And the “Leaf-piece test rates (20 ppm), efficacy” value ([10]; 20 ppm)?
The value was 0%.

What about the “Leaf-piece test rates (60 ppm), efficacy” value ([10]; 60 ppm) of the same molecule?
The value was 0%.

And the “Leaf-piece test rates (200 ppm), efficacy” value ([10]; 200 ppm)?
The value was 0%.

What about the “Leaf-piece test rates (20 ppm), efficacy” value ([11]; curative) of the same molecule?
Its value is 0%.

And the “Leaf-piece test rates (20 ppm), efficacy” value ([11]; preventative)?
Its value is 0%.

And the “Leaf-piece test rates (60 ppm), efficacy” value ([11]; curative)?
The value was 0%.

What about the “Leaf-piece test rates (60 ppm), efficacy” value ([11]; preventative) of the same molecule?
The value was 50%.

And the “Leaf-piece test rates (200 ppm), efficacy” value ([11]; curative)?
Its value is 0%.

What about the “Leaf-piece test rates (200 ppm), efficacy” value ([11]; preventative) of the same molecule?
The value was 90%.

What about the “activity in leaf disk test” value ([11]; wheat leaf disks) of the same molecule?
Its value is “demonstrated activity”.

What about the “Leaf-piece test rates (20 ppm), efficacy” value ([12]; 20 ppm) of the same molecule?
The value was 0%.

What about the “Leaf-piece test rates (60 ppm), efficacy” value ([12]; 60 ppm) of the same molecule?
The value was 0%.

And the “Leaf-piece test rates (200 ppm), efficacy” value ([12]; 200 ppm)?
The value was 0%.

And the “Leaf-piece test rates (20 ppm), efficacy” value ([13]; 20 ppm)?
The value was 0%.

What about the “Leaf-piece test rates (60 ppm), efficacy” value ([13]; 60 ppm) of the same molecule?
Its value is 0%.

And the “Leaf-piece test rates (200 ppm), efficacy” value ([13]; 200 ppm)?
The value was 0%.

And the “Leaf-piece test rates (20 ppm), efficacy” value ([14]; 20 ppm)?
The value was 0%.

What about the “Leaf-piece test rates (60 ppm), efficacy” value ([14]; 60 ppm) of the same molecule?
Its value is 0%.

And the “Leaf-piece test rates (200 ppm), efficacy” value ([14]; 200 ppm)?
Its value is 0%.

What about the “Leaf-piece test rates (20 ppm), efficacy” value ([15]; 20 ppm) of the same molecule?
Its value is 0%.

And the “Leaf-piece test rates (60 ppm), efficacy” value ([15]; 60 ppm)?
The value was 0%.

What about the “Leaf-piece test rates (200 ppm), efficacy” value ([15]; 200 ppm) of the same molecule?
Its value is 0%.

What about the “Liquid-culture test rates (0.2 ppm), efficacy” value ([16]; 0.2 ppm) of the same molecule?
Its value is 0%.

What about the “Liquid-culture test rates (2 ppm), efficacy” value ([16]; 2 ppm) of the same molecule?
The value was 0%.

What about the “Liquid-culture test rates (20 ppm), efficacy” value ([16]; 20 ppm) of the same molecule?
The value was 0%.

And the “activity in liquid-culture test” value [17]?
The value was “demonstrated activity”.

What about the “Liquid-culture test rates (0.2 ppm), efficacy” value [17, 28] of the same molecule?
The value was 0%.

What about the “Liquid-culture test rates (2 ppm), efficacy” value [17, 29] of the same molecule?
Its value is 70%.

What about the “Liquid-culture test rates (20 ppm), efficacy” value [17, 30] of the same molecule?
The value was 100%.

And the “activity in liquid-culture test” value [18]?
The value was “demonstrated activity”.

And the “Liquid-culture test rates (0.2 ppm), efficacy” value [18, 28]?
Its value is 0%.

And the “Liquid-culture test rates (2 ppm), efficacy” value [18, 29]?
Its value is 50%.

And the “Liquid-culture test rates (20 ppm), efficacy” value [18, 30]?
The value was 100%.

And the “activity in liquid-culture test” value [19]?
Its value is “demonstrated activity”.

What about the “Liquid-culture test rates (0.2 ppm), efficacy” value [19, 28] of the same molecule?
The value was 0%.

And the “Liquid-culture test rates (2 ppm), efficacy” value [19, 29]?
Its value is 100%.

And the “Liquid-culture test rates (20 ppm), efficacy” value [19, 30]?
The value was 100%.

What about the “activity in liquid-culture test” value [20] of the same molecule?
The value was “demonstrated activity”.

What about the “Liquid-culture test rates (0.2 ppm), efficacy” value [20, 28] of the same molecule?
Its value is 90%.

What about the “Liquid-culture test rates (2 ppm), efficacy” value [20, 29] of the same molecule?
The value was 100%.

And the “Liquid-culture test rates (20 ppm), efficacy” value [20, 30]?
Its value is 100%.

And the “activity in liquid-culture test” value [21]?
Its value is “demonstrated activity”.

What about the “Liquid-culture test rates (0.2 ppm), efficacy” value [21, 28] of the same molecule?
The value was 0%.

What about the “Liquid-culture test rates (2 ppm), efficacy” value [21, 29] of the same molecule?
The value was 90%.

What about the “Liquid-culture test rates (20 ppm), efficacy” value [21, 30] of the same molecule?
The value was 100%.

What about the “activity in liquid-culture test” value [22] of the same molecule?
The value was “demonstrated activity”.

And the “Liquid-culture test rates (0.2 ppm), efficacy” value [22, 28]?
The value was 0%.

And the “Liquid-culture test rates (2 ppm), efficacy” value [22, 29]?
Its value is 100%.

And the “Liquid-culture test rates (20 ppm), efficacy” value [22, 30]?
The value was 100%.

What about the “Liquid-culture test rates (0.2 ppm), efficacy” value ([23]; 0.2 ppm) of the same molecule?
The value was 0%.

What about the “Liquid-culture test rates (2 ppm), efficacy” value ([23]; 2 ppm) of the same molecule?
The value was 0%.

What about the “Liquid-culture test rates (20 ppm), efficacy” value ([23]; 20 ppm) of the same molecule?
The value was 0%.

And the “activity in liquid-culture test” value [24]?
The value was “demonstrated activity”.

And the “Liquid-culture test rates (0.2 ppm), efficacy” value [24, 28]?
The value was 0%.

What about the “Liquid-culture test rates (2 ppm), efficacy” value [24, 29] of the same molecule?
Its value is 50%.

And the “Liquid-culture test rates (20 ppm), efficacy” value [24, 30]?
Its value is 70%.

What about the “activity in liquid-culture test” value [25] of the same molecule?
The value was “demonstrated activity”.

And the “Liquid-culture test rates (0.2 ppm), efficacy” value [25, 28]?
The value was 0%.

And the “Liquid-culture test rates (2 ppm), efficacy” value [25, 29]?
The value was 20%.

What about the “Liquid-culture test rates (20 ppm), efficacy” value [25, 30] of the same molecule?
The value was 50%.

And the “ED50 (cytotoxicity)” value [26]?
Its value is 2 µg/mL (≈ 4.61 µM).

What about the acute toxicity [27] of the same molecule?
The acute toxicity was “low acute toxicity”.
